Measured values from patent US20240352066A1, “ANTIMICROBIAL COMPOUNDS AND THE METHOD OF USE” (priority 2021, published 2024).
Values after ≈ are worked out from the molar mass of the structure shown. Where a SMILES comes first, the peptide text is derived from it. [ ]: non-standard residue; d: D form. N(tridecyl)Gly = CCCCCCCCCCCCCNCC(=O)O; Gly(N-2-aminoethyl) = NCCNCC(=O)O; Gly(N-cHex) = O=C(O)CNC1CCCCC1; Nleu = CC(C)CNCC(=O)O; Nlys = NCCCCNCC(=O)O

Key:
[1] = Percent acetonitrile at elution during RP-HPLC purification (hydrophobicity); type: physicochemical; conditions: percent acetonitrile at the time of elution from HPLC
Excerpt: All RMG8-8 derivatives were synthesized via the solid-phase submonomer synthesis method on polystyrene Rink Amide resin (Zuckermann et al. Journal of the American Chemical Society 114, 10646-10647 (1992)). The amines used during synthesis and the peptoid shorthand notations for each monomer are provided in Table 7 and Table 8, respectively. Compounds were purified to greater than 95% by RP-HPLC and compound identity was confirmed by ESI-TOF MS (Table 9). The calculated distribution coefficient at pH 7.4 (c Log D7.4) (via Chemaxon. MarvinSketch 19.17.0, 2019) and the percent acetonitrile at the time of elution during HPLC purification were recorded and serve as measures of hydrophobicity (Table 10). Higher values for c Log D7.4 and percent acetonitrile are indicators of increased compound hydrophobicity. With antimicrobial peptoids, hydrophobicity is directly related to both antimicrobial activity and cytotoxicity (Andreev et al. Biochimica et biophysica acta. Biomembranes 1860 6, 1414-1423 (2018); Bolt et al. Med chem comm 8, 886-896 (2017); Frederiksen et al. Molecules 24, (2019)). The ideal balance of these parameters generally must be determined experimentally. To measure antifungal activity, the minimum inhibitory concentration (MIC), defined as the concentration of compound required to inhibit 90% of fungal growth, was determined against C. neoformans using the broth microdilution method. Mammalian cytotoxicity was evaluated through a cell metabolic activity assay with HepG2 liver carcinoma cells, and select, potentially promising compounds were tested for unwanted hemolytic activity against human red blood cells.
Peptoids were purified via Reversed-Phase High-Performance Liquid Chromatography (RP-HPLC) using a Varian Prepstar SD-1. A gradient of 0-100% water to acetonitrile containing 0.05% TFA made up the mobile phase, and a Supelco Ascentis C18 column (5 μm; 25 cm×21.2 mm; Sigma-Aldrich 581347-U) was used as the stationary phase. Peaks in the chromatogram above 0.1 AU were collected and analyzed via mass spectrometry. The peak product with the desired peptoid was dried down in vacuo and lyophilized overnight. Peptoids were then reconstituted in sterile […] deionized water to create compound stocks of 20 mg/mL.

C. albicans biofilm = type: cell-based, Candida albicans; conditions: 24 h
Description: Plates were incubated overnight at 37° C. Media was gently removed and gently washed three times with PBS. RPMI-MOPS (198 μL) were added to each well. 2-fold serial dilutions of 100× peptoid solutions were prepared in water and 2 μL of peptoid were added to each well in triplicate then incubated at 37° C. for 24 hours. PrestoBlue (20 μL) was added to each well and incubated at 37° C. for one hour before measuring fluorescence on a SpectraMax M5 plate reader (Ex. 555 nm; Em. 585 nm).

HaCat keratinocyte cells = experiment: in vitro; type: cell-based, human
Description: (§1) Hepatocellular carcinoma (HepG2), mouse fibroblast (3T3), human lung (HPL1A), and human keratinocyte (HaCat) cells were cultured in Dulbecco modified eagle media (DMEM) containing 10% fetal bovine serum (FBS) and 1% penicillin, streptomycin, and glutamine (PSG) at 37° C. and 5% CO2. Cells were collected and adjusted to […] to 4×10^5 cells/mL in phenol-red free DMEM and plated (100 μL) 96 well plates. 2-fold serial dilutions of 10× peptoid (11.1 μL) were added to each well in triplicate. Water (vehicle) was used as a negative control. Plates were incubated at 37° C. in 5% CO2 for 72 hours. Thiazolyl blue tetrazolium bromide (MTT) was added to each well (5 mg/mL; 20 μL) and incubated for 3 hours. Media was removed, DMSO (100 μL) was added, and plates were incubated at 37° C. for 10 minutes. Plates were read on a SpectraMax M5 plate reader (Abs. 570 nm). The concentration of compound resulting in a 50% reduction in growth compared to control (toxicity dose 50%; TD50) was determined using GraFit. This procedure was repeated three times on separate days.

HPL1A lung cells = experiment: in vitro; type: cell-based, human
Description: as §1

in vitro = type: cell-based, human; conditions: human
Description: as §1

Mycobacterium smegmatis = type: cell-based; conditions: 72 h
Description: (§2) The minimum inhibitory concentration (MIC) of peptoids against the ESKAPE bacteria (Enterococcus faecium ATCC 6569; Staphylococcus aureus ATCC 29213; Klebsiella pneumoniae ATCC 13883; Acinetobacter 55aumannii ATCC 19606; Pseudomonas aeruginosa ATCC 25619; Enterococcus faecalis ATCC 29212; and Escherichia coli ATCC 25922) was determined following CLSI guidelines (CLSI. Methods for Dilution Antimicrobial Susceptibility Tests for Bacteria That Grow Aerobically, 11th Edition. (Clinical and Laboratory Standards Institute, 2018). The MIC against Mycobacterium smegmatis was also determined following CLSI guidelines (Woods et al., Susceptibility Testing of Mycobacteria, Nocardiae, and Other Aerobic Actinomycetes, 2nd edition. (2011)). Colonies picked from streaked tryptic soy agar plates were added to tryptic soy broth (TSB) to achieve a turbidity of OD600=0.08-0.15. Inoculant was diluted 1:200 into cation adjust Mueller Hinton Broth (CAVHB) and 90 μL was plated into each well of a 96 well black-wall plate. 2-fold serial dilutions of 10× peptoid (10 μL) were added to each well in triplicate and incubated at 37° C. for 24 hours for the ESKAPE bacteria and 72 hours for M. smegmatis. Tetracycline (20 μg/mL) was used as a positive control with DI water was used as a vehicle control. Following incubation for the ESKAPE bacteria, PrestoBlue (10 μL) was added to each well and incubated at 37° C. for one hour before measuring fluorescence on a SpectraMax M5 plate reader (Ex. 555 nm; Em. 585 nm). Following incubation for M. smegmatis, wells were scored following CLSI guidelines to determine MIC. This assay was repeated three times on separate days.

[2] = tested on: Staphylococcus aureus ATCC 29213; type: cell-based; conditions: ATCC 29213, 24 h
Description: as §2

[3] = tested on: Enterococcus faecium ATCC 6569; type: cell-based; conditions: ATCC 6569, 24 h
Description: as §2

[4] = tested on: Escherichia coli ATCC 25922; type: cell-based; conditions: ATCC 25922, 24 h
Description: as §2

[5] = tested on: Enterococcus faecalis ATCC 29212; type: cell-based; conditions: ATCC 29212, 24 h
Description: as §2

[6] = tested on: HepG2 hepatocellular carcinoma cells; conditions: RMG8-8, previously published results (Green et al. 2021); cited from earlier work

## CCCCCCCCCCCCCNCC(=O)N(CC(=O)N(CCCCN)CC(=O)N(CCN)CC(=O)N(CC(N)=O)CC(C)C)CC(C)C [Compound 9] (H-[N(tridecyl)Gly][Nleu][Nlys][Gly(N-2-aminoethyl)][Nleu]-NH2)
[1]
  % ACN: 68.1%

## CCCCCCCCCCCCCNCC(=O)N(CC(=O)N(CCCCN)CC(=O)N(CCN)CC(=O)N(CC(N)=O)C1CCCCC1)C1CCCCC1 [RMG8-8, Ntri-Ncha-Nlys-Nae-Ncha] (H-[N(tridecyl)Gly][Gly(N-cHex)][Nlys][Gly(N-2-aminoethyl)][Gly(N-cHex)]-NH2)
C. albicans biofilm
  MIC C. albicans biofilm (MBIC): 100 µg/mL (≈ 131 µM)
HaCat keratinocyte cells
  TD50 HaCat: 54 µg/mL
HPL1A lung cells
  TD50 HPL1A: 74 µg/mL
In vitro; HPL1A lung cells
  CC50 at 72 h: 74 ± 8 µg/mL (≈ 97 µM)
In vitro; HaCat keratinocyte cells
  CC50 at 72 h: 54 ± 10 µg/mL (≈ 70.8 µM)
other
  proteolytic degradation / protein binding in human serum: No proteolytic degradation or significant protein binding
Mycobacterium smegmatis
  MIC M. smegmatis: 3.13 to 6.25 µg/mL
[2]
  MIC S. aureus: 6.25 µg/mL (≈ 8.19 µM)
[3]
  MIC E. faecium: 6.25 µg/mL (≈ 8.19 µM)
[4]
  MIC E. coli: 12.5 µg/mL (≈ 16.4 µM)
[5]
  MIC E. faecalis: 6.25 µg/mL (≈ 8.19 µM)
[6]
  HepG2 TD50: 189 ± 43 µg/mL
